Assay results taken from ChEMBL document CHEMBL4837205, “Design, synthesis and biological evaluations of a series of Pyrido[1,2-a]pyrimidinone derivatives as novel selective FGFR inhibitors” (Eur J Med Chem, 2021).
Converted amounts (≈) assume the structure as drawn.

Test: physchem
Settings: buffer, pH 7.4

| SMILES | solubility [µg/mL] |
| --- | --- |
| COc1cc(OC)cc(N(CCNC(C)C)c2ccc3ncc(-c4cnn(C5CN(C(C)=O)C5)c4)c(=O)n3c2)c1 | 59.1 (≈ 108 µM) |
| COc1cc(OC)cc(N(CCNC(C)C)c2ccc3ncc(-c4cnn(CCN(C)C)c4)c(=O)n3c2)c1 | < 10 |
